The results in this text go back to ChEMBL document CHEMBL1153997, “Discovery of oxazolo[4,5-b]pyridines and related heterocyclic analogs as novel SIRT1 activators” (Bioorg Med Chem Lett, 2009).

Some results are limits rather than exact numbers.

In experiment [1] the target is T1, NAD-dependent protein deacetylase sirtuin-1 (Homo sapiens) (UniProt Q96EB6).
T1 sequence (whole entry): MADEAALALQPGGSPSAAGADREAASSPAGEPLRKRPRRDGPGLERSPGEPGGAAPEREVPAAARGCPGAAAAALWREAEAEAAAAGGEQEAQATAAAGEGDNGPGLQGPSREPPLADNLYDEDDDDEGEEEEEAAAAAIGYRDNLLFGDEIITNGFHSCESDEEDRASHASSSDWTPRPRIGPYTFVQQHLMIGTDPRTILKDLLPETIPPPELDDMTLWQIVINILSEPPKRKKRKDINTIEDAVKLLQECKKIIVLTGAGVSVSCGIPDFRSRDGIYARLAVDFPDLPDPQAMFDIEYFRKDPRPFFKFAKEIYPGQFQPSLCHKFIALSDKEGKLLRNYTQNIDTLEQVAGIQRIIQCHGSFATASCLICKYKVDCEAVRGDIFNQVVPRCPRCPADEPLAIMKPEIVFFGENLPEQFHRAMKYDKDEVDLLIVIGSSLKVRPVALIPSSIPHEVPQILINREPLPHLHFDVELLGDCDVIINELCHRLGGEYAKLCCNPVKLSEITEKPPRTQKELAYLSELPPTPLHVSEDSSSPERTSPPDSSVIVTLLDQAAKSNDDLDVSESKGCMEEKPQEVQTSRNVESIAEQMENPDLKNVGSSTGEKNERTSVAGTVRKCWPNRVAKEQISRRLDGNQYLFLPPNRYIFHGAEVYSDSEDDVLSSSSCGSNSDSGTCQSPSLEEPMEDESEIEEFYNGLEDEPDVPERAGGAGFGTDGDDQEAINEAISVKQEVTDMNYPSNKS
The experiment can be described thus: Activation of human SIRT1 expressed in Escherichia coli BL21 (DE3) assessed as concentration required to increase 50% enzyme activity by fluorescence polarization assay. In general terms: Fluorescence polarisation rises when a labelled molecule tumbles more slowly, as on binding a larger partner.

Experiment [2] has as its target T1, NAD-dependent protein deacetylase sirtuin-1 (Homo sapiens). The experiment can be described thus: Activation of human SIRT1 expressed in Escherichia coli BL21 (DE3) assessed as maximum activation of enzyme activity by fluorescence polarization assay.

For `CN(C)c1ccc(C(=O)Nc2ccccc2-c2nc3ncccc3[nH]2)cc1`, the EC1.5 in experiment [1] was 0.7 µM. Moreover, the max activation in experiment [2] came to 230%.

As for `O=C(Nc1ccccc1-c1nc2ccccc2[nH]1)c1cnc2ccccc2n1`, the EC1.5 in experiment [1] is 0.3 µM. Moreover, the max activation in experiment [2] stood at 253%.

`COc1ccc(C(=O)Nc2cc(CN3CCNCC3)cc(-c3nc4ncccc4o3)c2)cc1OC`: the EC1.5 in experiment [1] stood at 1.1 µM. The max activation in experiment [2] amounted to 240%.

`COc1cc(OC)cc(C(=O)Nc2ccccc2-c2nc3ccccc3[nH]2)c1`: in experiment [1], the EC1.5 came to 1.7 µM. Further, in experiment [2], the max activation was 180%.

Regarding `COc1ccc(C(=O)Nc2ccccc2-c2nc3ccccc3[nH]2)cc1CN1CCOCC1`, in experiment [1], the EC1.5 stood at 0.5 µM. Besides, in experiment [2], the max activation was determined as 314%.

As to `COc1ccc(C(=O)Nc2cc(C(=O)NCCN(C)C)cc(-c3nc4ncccc4o3)c2)cc1OC`, the EC1.5 in experiment [1] stood at 0.7 µM. The max activation in experiment [2] turned out to be 240%.

For the compound `COc1ccc(C(=O)Nc2cc(CN(C)C)cc(-c3nc4ncccc4o3)c2)cc1OC`, in experiment [1], the EC1.5 was 1.1 µM. Also, in experiment [2], the max activation is 200%.

`O=C(Nc1ccccc1-c1nc2ncccc2[nH]1)c1ccc(N2CCOCC2)cc1`: the EC1.5 in experiment [1] is 0.9 µM. Further, the max activation in experiment [2] was found to be 273%.

Take `Oc1ccc(/C=C/c2cc(O)cc(O)c2)cc1`: the max activation in experiment [2] was determined as 200%.

On to `COc1ccc(C(=O)Nc2ccccc2-c2nc3ccccc3[nH]2)cc1OC`, for which, in experiment [1], the EC1.5 stood at 0.4 µM. Moreover, the max activation in experiment [2] came out at 595%.

Turning to `CN(C)c1cccc(C(=O)Nc2ccc(-c3nc4ncccc4o3)cc2)c1`, the EC1.5 in experiment [1] is more than 100 µM.

In the case of `CN(C)c1cccc(C(=O)Nc2cccc(-c3nc4ncccc4o3)c2)c1`, in experiment [1], the EC1.5 came out at 25 µM. In addition, the max activation in experiment [2] was 207%.

Take `COc1ccc(C(=O)Nc2cccc(-c3nc4ncccc4[nH]3)c2)c(OC)c1`: the EC1.5 in experiment [1] turned out to be 0.5 µM. In experiment [2], the max activation amounted to 232%.

In the case of `COc1ccc(C(=O)Nc2cccc(-c3nc4ncccc4o3)c2)cc1OC`, the EC1.5 in experiment [1] stood at 6 µM. In experiment [2], the max activation is 240%.

Take `COc1cc(C)ccc1C(=O)Nc1ccccc1-c1nc2ncccc2[nH]1`: in experiment [1], the EC1.5 is 4.1 µM. Also, the max activation in experiment [2] was 250%.

For the compound `COc1ccc(C(=O)Nc2ccc(-c3nc4ncccc4o3)cc2)cc1OC`, the EC1.5 in experiment [1] is more than 100 µM.

For `COc1ccc(C(=O)Nc2cccc(-c3nc4ncccc4[nH]3)c2)cc1OC`, in experiment [1], the EC1.5 was 1.4 µM. Further, the max activation in experiment [2] came to 324%.

Turning to `COc1ccc(C(=O)Nc2ccccc2-c2nc3ncccc3[nH]2)cc1OC`, the EC1.5 in experiment [1] was 0.5 µM. In experiment [2], the max activation was 270%.

As to `COc1ccc(C(=O)Nc2ccc(-c3nc4ncccc4[nH]3)cc2)cc1OC`, in experiment [1], the EC1.5 was 1.6 µM. For the same compound, in experiment [2], the max activation was determined as 180%.

`CN(C)CCNC(=O)c1cc(NC(=O)c2cccc(N(C)C)c2)cc(-c2nc3ncccc3o2)c1`: the EC1.5 in experiment [1] stood at 1.8 µM. Besides, the max activation in experiment [2] came out at 330%.

As to `CN(C)c1cccc(C(=O)Nc2ccccc2-c2nc3ncccc3o2)c1`, in experiment [1], the EC1.5 stood at 4.4 µM. Further, the max activation in experiment [2] was 209%.

For `COc1cc(C)ccc1C(=O)Nc1ccc(-c2nc3ncccc3[nH]2)cc1`, the EC1.5 in experiment [1] was found to be 2.3 µM. For the same compound, the max activation in experiment [2] was 150%.

In the case of `O=C(Nc1ccc(CN2CCNCC2)cc1-c1nc2ccccc2[nH]1)c1cnc2ccccc2n1`, the EC1.5 in experiment [1] worked out at 0.4 µM. Also, in experiment [2], the max activation is 820%.

On to `COc1ccc(C(=O)Nc2ccccc2-c2nc3ncccc3o2)cc1OC`, for which the EC1.5 in experiment [1] was determined as 0.9 µM. For the same compound, in experiment [2], the max activation is 170%.

Regarding `COc1ccc(C(=O)Nc2cc(CN3CCNCC3)cc(-c3nc4ncccc4o3)c2)c(OC)c1`, in experiment [1], the EC1.5 was determined as 0.5 µM. The max activation in experiment [2] was found to be 220%.
